# Experimental data reported in patent publication US20230106032A1, “IMIDAZOTRIAZINES ACTING ON CANCER VIA INHIBITION OF CDK12” (Bayer Aktiengesellschaft, priority 2020, published 2023).
# What was measured:
# [1] = test system: CAL-120 human breast adenocarcinoma cells; assay: Proliferation assay CAL-120 (crystal violet); assay type: cell-based; conditions: 96 h, CAL-120 cells, 4 days, read-out: Prolif-CAL-120_ IC50-[mol/l] (median)
# Procedure: (§1) Human tumour cells were originally obtained from the American Type Culture Collection (ATCC), or from the Deutsche Sammlung von Mikroorganismen und Zellkulturen (DSMZ, German Collection of Microorganisms and Cell Cultures). Cultivated tumour cells (CAL-120, human breast adenocarcinoma cells, DSMZ ACC-459; MDA-MB-231, human breast cancer cells, ATCC HTB-26) were plated at a density of 4,000 cells/well in a 96-well multititer plate in 200 microL of their respective growth medium supplemented 10% fetal calf serum. After 24 hours, the cells of one plate (zero-point plate) were stained with crystal violet (see below), while the medium of the other plates was supplemented with the test substances in various concentrations (0 micromol/L, as well as in the range of 0.01-10 micromol/L; the final concentration of the solvent dimethyl sulfoxide was adjusted to 0.1%) using a Tecan HP D300 Digital Dispenser. The cells were incubated for 4 days in the presence of test substances. Cell proliferation was determined by staining the cells with crystal violet: the cells were fixed by adding 20 microL/measuring point of an 11% glutaric aldehyde solution for 15 minutes at room temperature. After three washing cycles of the fixed cells with water, the plates were dried at room temperature. The cells were stained by adding 100 microL/measuring point of a 0.1% crystal violet solution (pH 3.0). After three washing cycles of the stained cells with water, the plates were dried at room temperature. The dye was dissolved by adding 100 microL/measuring point of a 10% acetic acid solution. The extinction was determined by photometry at a wavelength of 595 nm. The change of cell number, in percent, was calculated by normalization of the measured values to the extinction values of the zero-point plate (=0%) and the extinction of the untreated (0 μM) cells (=100%). The IC50 values (inhibitory concentration at 50% of maximal effect) were determined by means of a 4 parameter fit.
# CDK9/CycT1 = target: T1, CDK9/CycT1 (Homo sapiens, UniProt P50750); assay: CDK9/CycT1 high ATP kinase assay (TR-FRET, 2 mM ATP); assay type: biochemical; conditions: read-out: CDK9/CyclinT1, 2 mM ATP (high ATP) IC50-[mol/l] (median)
# T1 construct: Recombinant full-length His-tagged human CDK9 and CycT1, expressed in insect cells; His; purchased Life Technologies PV4131; host or cells: insect cells
# Procedure: CDK9/CycT1-inhibitory activity of compounds of the present invention at a high ATP concentration after preincubation of enzyme and test compounds was quantified employing the CDK9/CycT1 TR-FRET assay as described in the following paragraphs.
# Recombinant full-length His-tagged human CDK9 and CycT1, expressed in insect cells and purified by Ni-NTA affinity chromatography, were purchased from Life Technologies (Cat. No PV4131). As substrate for the kinase reaction biotinylated peptide biotin-Ttds-YISPLKSPYKISEG (C-terminus in amide form) was used which can be purchased e.g. form the company JERINI peptide technologies (Berlin, Germany).
# For the assay 50 nanoL of a 100 fold concentrated solution of the test compound in DMSO was pipetted into either a black low volume 384 well microtiter plate or a black 1536 well microtiter plate (both Greiner Bio-One, Frickenhausen, Germany), 2 microL of a solution of CDK9/CycT1 in aqueous assay buffer [50 millimol/L Tris/HCl pH 8.0, 10 millimol/L MgCl2, 1.0 millimol/L dithiothreitol, 0.1 millimol/L sodium ortho-vanadate, 0.01% (v/v) Nonidet-P40 (Sigma)] were added and the mixture was incubated for 15 min at 22° C. to allow pre-binding of the test compounds to the enzyme before the start of the kinase reaction. Then the kinase reaction was started by the addition of 3 microL of a solution of adenosine-tri-phosphate (ATP, 3.3 millimol/L=> final conc. in the 5 microL assay volume is 2 millimol/L) and substrate (1.25 micromol/L=> final conc. in the 5 microL assay volume is 0.75 micromol/L) in assay buffer and the resulting mixture was incubated for a reaction time of 25 min at 22° C. The concentration of CDK9/CycT1 was adjusted depending of the activity of the enzyme lot and was chosen appropriate to have the assay in the linear range, typical concentrations were in the range of 0.5 microg/ml. The reaction was stopped by the addition of 3 microL of a solution of TR-FRET detection reagents (0.33 micromol/L streptavidine-XL665 [Cisbio Bioassays, Codolet, France] and 1.67 nanomol/L anti-RB(pSer807/pSer8l 1)-antibody from BD Pharmingen [#558389] and 2 nanomol/L LANCE EU-W1024 labeled anti-mouse IgG antibody [Perkin-Elmer, product no. AD0077]) in an aqueous EDTA-solution (167 millimol/L EDTA, 0.2% (w/v) bovine serum albumin in 100 millimol/L HEPES pH 7.5).
# The resulting mixture was incubated 1 h at 22° C. to allow the formation of complex between the phosphorylated biotinylated peptide and the detection reagents. Subsequently the amount of phosphorylated substrate was evaluated by measurement of the resonance energy transfer from the Eu-chelate to the streptavidine-XL. Therefore, the fluorescence emissions at 620 nm and 665 nm after excitation at 350 nm was measured in a TR-FRET reader, e.g. a Pherastar (BMG Labtechnologies, Offenburg, Germany) or a Viewlux (Perkin-Elmer). The ratio of the emissions at 665 nm and at […] was taken as the measure for the amount of phosphorylated substrate. The data were normalised (enzyme reaction without inhibitor=0% inhibition, all other assay components but no enzyme=100% inhibition).
# [2] = test system: BRCA1 mRNA expression in MDA-MB-231 cells; assay: qRT-PCR assay: inhibition of BRCA1 mRNA expression in MDA-MB-231 cells; assay type: cell-based; conditions: Homo sapiens, 24 h exposure, normalised to GAPDH, read-out: RTqPCR-MDA-MB-231 IC50 [mol/l] BRCA1 (median)
# Procedure: Tissue cultured human MDA-MB-231 human breast cancer cells were plated in 500 microL per well at 200,000 cells/well in a 24 well microtiter plate. After 24 h, the cells were exposed continuously for 24 h to test substances (substances were added with Tecan HP D300 Dispenser). RNA was prepared using Qiagen RNeasy MiniKit (#74106), RNA was quantified using a NanoDrop Equipment, and 600 nano gamms of RNA was converted to cDNA using a SuperScript VILO kit (Thermofisher #11755050) followed by qPCR amplification. BRCA1 and ATR gene expression was measured by RT-qPCR and normalised to GAPDH housekeeping gene expression. qPCR primer sets have been purchased from Thermo Fisher Scientific/Applied Biosystems: BRCA1, #Hs 01556193; ATR, #Hs 00992123; GAPDH, #Hs 03929097.
# [3] = test system: MDA-MB-231 human breast cancer cells; assay: Proliferation assay MDA-MB-231 (crystal violet); assay type: cell-based; conditions: 96 h, MDA-MB-231 cells, 4 days, read-out: Prolif-MDA MB231 IC50-[mol/l] (median)
# Procedure: as §1
# T1 sequence (P50750 whole entry): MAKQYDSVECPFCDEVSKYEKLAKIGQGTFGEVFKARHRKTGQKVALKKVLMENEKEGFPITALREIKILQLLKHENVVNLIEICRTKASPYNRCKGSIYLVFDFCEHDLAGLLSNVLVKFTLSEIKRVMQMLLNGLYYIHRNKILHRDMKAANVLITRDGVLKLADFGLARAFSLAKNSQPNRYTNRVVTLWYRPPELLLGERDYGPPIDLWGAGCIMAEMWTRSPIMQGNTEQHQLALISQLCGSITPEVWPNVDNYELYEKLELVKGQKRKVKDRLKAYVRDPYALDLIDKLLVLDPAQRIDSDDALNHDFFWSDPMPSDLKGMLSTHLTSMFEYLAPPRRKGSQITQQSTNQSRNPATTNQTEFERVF
# T1 sequence (O60563 whole entry partner): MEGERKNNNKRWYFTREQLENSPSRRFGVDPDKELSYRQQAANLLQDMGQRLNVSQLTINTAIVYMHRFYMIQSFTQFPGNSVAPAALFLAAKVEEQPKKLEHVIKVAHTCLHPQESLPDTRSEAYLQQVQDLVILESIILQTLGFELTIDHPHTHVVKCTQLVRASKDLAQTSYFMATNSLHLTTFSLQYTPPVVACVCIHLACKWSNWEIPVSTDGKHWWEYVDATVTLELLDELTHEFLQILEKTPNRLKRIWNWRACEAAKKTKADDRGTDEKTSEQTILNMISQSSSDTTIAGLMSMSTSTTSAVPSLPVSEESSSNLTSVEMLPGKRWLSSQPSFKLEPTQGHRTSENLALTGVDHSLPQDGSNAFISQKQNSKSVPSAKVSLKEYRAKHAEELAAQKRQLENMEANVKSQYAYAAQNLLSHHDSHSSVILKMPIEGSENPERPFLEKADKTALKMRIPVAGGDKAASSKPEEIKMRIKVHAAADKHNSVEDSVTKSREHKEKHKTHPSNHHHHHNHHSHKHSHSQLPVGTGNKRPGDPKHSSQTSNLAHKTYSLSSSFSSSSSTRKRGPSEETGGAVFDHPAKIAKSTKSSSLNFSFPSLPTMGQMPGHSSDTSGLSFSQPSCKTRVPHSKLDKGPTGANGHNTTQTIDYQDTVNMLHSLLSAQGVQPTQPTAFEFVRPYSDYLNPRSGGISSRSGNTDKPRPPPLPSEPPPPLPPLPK
SMILES,IC50 [1],IC50 (CDK9/CycT1),IC50 [3],IC50 [2]
"C[C@@H]1CN(c2nc(NCc3nc4cc(F)ccc4[nH]3)c3ncc(Br)n3n2)C[C@H](C)N1 [Example 19, 7-bromo-2-[rel-(3R,5S)-3,5-dimethylpiperazin-1-yl]-N-[(5-fluoro-1H-benzimidazol-2-yl)methyl]imidazo[2,1-f][1,2,4]triazin-4-amine]",1.14 nM,> 20000 nM,2.73 nM,0.886 nM
"C[C@@H]1CN(c2nc(NCc3nc4ccccc4[nH]3)c3ncc(C(F)(F)F)n3n2)C[C@H](C)N1.O=CO [Example 24, N-[(1H-benzimidazol-2-yl)methyl]-2-[rel-(3R,5S)-3,5-dimethylpiperazin-1-yl]-7-(trifluoromethyl)imidazo[2,1-f][1,2,4]triazin-4-amine Formate (1/1)]",1.2 nM,> 20000 nM,1.52 nM,1.1 nM
"CN1CCN(c2nc(NCc3nc4ccccc4[nH]3)c3ncc(C(F)(F)F)n3n2)CC1 [Example 25, N-[(1H-benzimidazol-2-yl)methyl]-2-(4-methylpiperazin-1-yl)-7-(trifluoromethyl)imidazo[2,1-f][1,2,4]triazin-4-amine]",12.3 nM,> 20000 nM,13.2 nM,8.65 nM
"FC(F)(F)c1cnc2c(NCc3nc4ccccc4[nH]3)nc(N3CCOCC3)nn12 [Example 26, N-[(1H-benzimidazol-2-yl)methyl]-2-(morpholin-4-yl)-7-(trifluoromethyl)imidazo[2,1-f][1,2,4]triazin-4-amine]",7.11 nM,> 20000 nM,7.21 nM,3.64 nM
"Fc1ccc2[nH]c(CNc3nc(N4CCOCC4)nn4c(C(F)(F)F)cnc34)nc2c1F [Example 27, N-[(4,5-difluoro-1H-benzimidazol-2-yl)methyl]-2-(morpholin-4-yl)-7-(trifluoromethyl)imidazo[2,1-f][1,2,4]triazin-4-amine]",2.01 nM,6740 nM,1.91 nM,1.05 nM
"CN1CCN(c2nc(NCc3nc4c(F)c(F)ccc4[nH]3)c3ncc(C(F)(F)F)n3n2)CC1 [Example 28, N-[(4,5-difluoro-1H-benzimidazol-2-yl)methyl]-2-(4-methylpiperazin-1-yl)-7-(trifluoromethyl)imidazo[2,1-f][1,2,4]triazin-4-amine]",1.99 nM,> 20000 nM,2.83 nM,0.242 nM
"C[C@@H]1CN(c2nc(NCc3nc4c(F)c(F)ccc4[nH]3)c3ncc(C(F)(F)F)n3n2)C[C@H](C)N1 [Example 29, N-[(4,5-difluoro-1H-benzimidazol-2-yl)methyl]-2-[rel-(3R,5S)-3,5-dimethylpiperazin-1-yl]-7-(trifluoromethyl)imidazo[2,1-f][1,2,4]triazin-4-amine]",0.536 nM,4620 nM,0.839 nM,1.05 nM

# The next lines start with results.
IC50 [1],IC50 (CDK9/CycT1),IC50 [3],SMILES,IC50 [2]
3.05 nM,> 20000 nM,5.65 nM,"COc1cccc2[nH]c(CNc3nc(N4CCNCC4)nn4c(Br)cnc34)nc12 [Example 15, 7-bromo-N-[(4-methoxy-1H-benzimidazol-2-yl)methyl]-2-(piperazin-1-yl)imidazo[2,1-f][1,2,4]triazin-4-amine]",2.36 nM
5.89 nM,> 20000 nM,13.1 nM,"COc1cccc2[nH]c(CNc3nc(N4CCN(C)CC4)nn4c(Br)cnc34)nc12.O=CO [Example 16, 7-bromo-N-[(4-methoxy-1H-benzimidazol-2-yl)methyl]-2-(4-methylpiperazin-1-yl)imidazo[2,1-f][1,2,4]triazin-4-amine Formate (1/1)]",5.59 nM
2.08 nM,14200 nM,3.45 nM,"C[C@@H]1CN(c2nc(NCc3nc4c(F)cccc4[nH]3)c3ncc(Br)n3n2)C[C@H](C)N1 [Example 18, 7-bromo-2-[rel-(3R,5S)-3,5-dimethylpiperazin-1-yl]-N-[(4-fluoro-1H-benzimidazol-2-yl)methyl]imidazo[2,1-f][1,2,4]triazin-4-amine]",1.98 nM
10.7 nM,> 20000 nM,3.73 nM,"Fc1ccc2[nH]c(CNc3nc(N4CCOCC4)nn4c(Br)cnc34)nc2c1 [Example 20, 7-bromo-N-[(5-fluoro-1H-benzimidazol-2-yl)methyl]-2-(morpholin-4-yl)imidazo[2,1-f][1,2,4]triazin-4-amine]",3.54 nM
4.82 nM,> 20000 nM,19.7 nM,"CN1CCN(c2nc(NCc3nc4cc(F)ccc4[nH]3)c3ncc(Br)n3n2)CC1 [Example 21, 7-bromo-N-[(5-fluoro-1H-benzimidazol-2-yl)methyl]-2-(4-methylpiperazin-1-yl)imidazo[2,1-f][1,2,4]triazin-4-amine]",3.11 nM
3.06 nM,> 19700 nM,4.41 nM,"Fc1cccc2[nH]c(CNc3nc(N4CCNCC4)nn4c(Br)cnc34)nc12 [Example 22, 7-bromo-N-[(4-fluoro-1H-benzimidazol-2-yl)methyl]-2-(piperazin-1-yl)imidazo[2,1-f][1,2,4]triazin-4-amine]",0.884 nM
14.2 nM,> 20000 nM,34.3 nM,"CN1CCN(c2nc(NCc3nc4c(F)cccc4[nH]3)c3ncc(Br)n3n2)CC1 [Example 23, 7-bromo-N-[(4-fluoro-1H-benzimidazol-2-yl)methyl]-2-(4-methylpiperazin-1-yl)imidazo[2,1-f][1,2,4]triazin-4-amine]",3.12 nM
